{"source": "ChEMBL document CHEMBL2202971", "about": "“Synthesis and anti-hyperglycemic activity of hesperidin derivatives” (2012)", "key": {"Mus musculus [1]": {"tested_on": "Mus musculus", "test": "Antihyperglycemic activity in streptozotocin-induced diabetic Kunming mouse model assessed as blood glucose level at 100 mg/kg/day, po for 10 days measured on day 10 post dose (reference value: 23.03 +/- 3.94 mM)", "type": "functional"}, "HepG2": {"tested_on": "HepG2", "test": "Induction of glucose consumption in human HepG2 cells at 0.1 mM assessed as glucose concentration incubated for 36 hrs", "type": "functional"}, "Mus musculus [2]": {"tested_on": "Mus musculus", "test": "Antihyperglycemic activity in streptozotocin-induced diabetic Kunming mouse model assessed as blood glucose level at 100 mg/kg/day, po for 10 days measured on day 7 post dose (reference value: 23.6 +/- 4.25 mM)", "type": "functional"}, "Mus musculus [3]": {"tested_on": "Mus musculus", "test": "Antihyperglycemic activity in streptozotocin-induced diabetic Kunming mouse model assessed as blood glucose level at 100 mg/kg/day, po for 10 days measured on day 3 post dose (reference value: 23.97 +/- 3.79 mM)", "type": "functional"}, "Mus musculus [4]": {"tested_on": "Mus musculus", "test": "Antihyperglycemic activity in streptozotocin-induced diabetic Kunming mouse model assessed as blood glucose level at 100 mg/kg/day, po for 10 days measured on day 1 post dose (reference value: 19.93 +/- 6.36 mM)", "type": "functional"}, "[5]": {"test": "Inhibition of alpha glucosidase at 1 mM using pNPG substrate incubated for 60 mins"}, "Mus musculus [6]": {"tested_on": "Mus musculus", "test": "Antihyperglycemic activity in streptozotocin-induced diabetic Kunming mouse model assessed as blood glucose level at 50 mg/kg/day, po for 10 days measured on day 7 post dose (reference value: 23.6 +/- 4.25 mM)", "type": "functional"}, "Mus musculus [7]": {"tested_on": "Mus musculus", "test": "Antihyperglycemic activity in streptozotocin-induced diabetic Kunming mouse model assessed as blood glucose level at 50 mg/kg/day, po for 10 days measured on day 3 post dose (reference value: 23.97 +/- 3.79 mM)", "type": "functional"}, "Mus musculus [8]": {"tested_on": "Mus musculus", "test": "Antihyperglycemic activity in streptozotocin-induced diabetic Kunming mouse model assessed as blood glucose level at 50 mg/kg/day, po for 10 days measured on day 10 post dose (reference value: 23.03 +/- 3.94 mM)", "type": "functional"}, "Mus musculus [9]": {"tested_on": "Mus musculus", "test": "Antihyperglycemic activity in streptozotocin-induced diabetic Kunming mouse model assessed as blood glucose level at 50 mg/kg/day, po for 10 days measured on day 1 post dose (reference value: 19.93 +/- 6.36 mM)", "type": "functional"}}, "note": "Calls of active or inactive are those of the source. The calls are words filed in the database; no cut-off is given here.", "data": [{"smiles": "CN(C)C(=N)NC(=N)N", "note": "[METFORMIN]", "values": [{"measurement": "Activity", "setting": "Mus musculus [1]", "result": 10, "unit": "mM"}, {"measurement": "Activity", "setting": "HepG2", "result": 2.11, "unit": "mM"}, {"measurement": "Activity", "setting": "Mus musculus [2]", "result": 14.47, "unit": "mM"}, {"measurement": "Activity", "setting": "Mus musculus [3]", "result": 20.72, "unit": "mM"}, {"measurement": "Activity", "setting": "Mus musculus [4]", "result": 16.98, "unit": "mM"}]}, {"smiles": "CCCCOc1cc(O)c2c(c1)OC(c1ccc(OC)c(OC)c1)CC2=O", "note": "(stereo not given)", "values": [{"measurement": "inhibition", "setting": "[5]", "result": "Active"}]}, {"smiles": "CCC(=O)Oc1cc(O)c2c(c1)OC(c1ccc(OC)c(OC)c1)CC2=O", "note": "(stereo not given)", "values": [{"measurement": "inhibition", "setting": "[5]", "result": "Active"}]}, {"smiles": "COc1ccc(C2CC(=O)c3c(O)cc(O)cc3O2)cc1O", "note": "(stereo not given)", "values": [{"measurement": "inhibition", "setting": "[5]", "result": "Active"}]}, {"smiles": "COc1ccc(C2CC(=O)c3c(O)cc(OCc4ccccc4)cc3O2)cc1OC", "note": "(stereo not given)", "values": [{"measurement": "inhibition", "setting": "[5]", "result": 53.3, "unit": "%"}]}, {"smiles": "COc1ccc(C2CC(=O)c3c(O)cc(OC(C)=O)cc3O2)cc1O", "note": "(stereo not given)", "values": [{"measurement": "inhibition", "setting": "[5]", "result": "Active"}]}, {"smiles": "CCC(=O)Oc1cc(O)c2c(c1)OC(c1ccc(OC)c(O)c1)CC2=O", "note": "(stereo not given)", "values": [{"measurement": "inhibition", "setting": "[5]", "result": "Active"}]}, {"smiles": "COc1ccc(C2CC(=O)c3c(O)cc(OCCCCBr)cc3O2)cc1OC", "note": "(stereo not given)", "values": [{"measurement": "inhibition", "setting": "[5]", "result": "Active"}]}, {"smiles": "COc1ccc(C2CC(=O)c3c(O)cc(OC(=O)c4ccccc4)cc3O2)cc1O", "note": "(stereo not given)", "values": [{"measurement": "inhibition", "setting": "[5]", "result": "Active"}]}, {"smiles": "COc1ccc(C2CC(=O)c3c(O)cc(O)cc3O2)cc1OC", "note": "(stereo not given)", "values": [{"measurement": "inhibition", "setting": "[5]", "result": "Active"}]}, {"smiles": "COc1ccc(C2CC(=O)c3c(O)cc(OCc4ccccc4)cc3O2)cc1O", "note": "(stereo not given)", "values": [{"measurement": "inhibition", "setting": "[5]", "result": 55, "unit": "%"}, {"measurement": "Activity", "setting": "Mus musculus [6]", "result": 19.35, "unit": "mM"}, {"measurement": "Activity", "setting": "Mus musculus [1]", "result": 13.23, "unit": "mM"}, {"measurement": "Activity", "setting": "Mus musculus [7]", "result": 21.25, "unit": "mM"}, {"measurement": "Activity", "setting": "HepG2", "result": 1.78, "unit": "mM"}, {"measurement": "Activity", "setting": "Mus musculus [2]", "result": 19.18, "unit": "mM"}, {"measurement": "Activity", "setting": "Mus musculus [8]", "result": 20.1, "unit": "mM"}, {"measurement": "Activity", "setting": "Mus musculus [3]", "result": 20.12, "unit": "mM"}, {"measurement": "Activity", "setting": "Mus musculus [4]", "result": 16.78, "unit": "mM"}, {"measurement": "Activity", "setting": "Mus musculus [9]", "result": 17.5, "unit": "mM"}]}, {"smiles": "C[C@H]1O[C@H](O[C@H]2[C@H](O)[C@@H](O)[C@@H](O[C@H]3[C@H](O)[C@@H](O)C(O)O[C@@H]3CO)O[C@@H]2CO)[C@H](O)[C@@H](O)[C@@H]1N[C@H]1C=C(CO)[C@@H](O)[C@H](O)[C@H]1O", "note": "(stereo not given in full)", "values": [{"measurement": "inhibition", "setting": "[5]", "result": 54.8, "unit": "%"}]}]}
